Read-outs that look alike come from different tables or passages of the source.
Key:
[1] = In vitro release under simulated gastrointestinal conditions (dialysis bag); type: physicochemical; settings: 0.1% SDS medium, 37 °C
Procedure: Drug release from SLN was monitored in vitro under simulated gastrointestinal conditions. The tests were performed by placing 2 mL SLN samples (containing 2 mg CAT3) into 400 mL of the dissolution medium maintained at 37 °C. The dissolution media contained 0.1% SDS (w/v) to meet sink conditions. Preswollen 8–10 kDa MWCO dialysis bags (Sigma-Aldrich, Madrid, Spain), which contained 5 mL of the blank SDS solution with the same concentration, were placed into the dissolution flask (n = 3). The release behavior of CAT3 was compared under the same condition by placing 5 mg CAT3 powder into the 1000 mL media. The samples (1 mL) were withdrawn at predetermined time points from the dialysis bags and replaced with the same amount of fresh medium maintained at 37 °C. The samples were centrifuged for 5 min at 12,000 rpm, and the resultant supernatants were quantified for drug content. The samples were protected from light during the experiments. The DDsolver software was used to evaluate the drug-release kinetics. An Excel worksheet (Microsoft Corporation, Redmond, WA, USA) was used to control the computing method for comparison with the results obtained using the DDSolver program. According to the example format for each built-in module of the DDSolver, all data were entered into Excel. The relevant parameters were calculated following the step-by-step equations utilizing an Excel spreadsheet.

[2] = Transepithelial transport study; type: in vitro ADME, canine; settings: dog, MDCK-MDR1, 37 °C, n = 3
Procedure: The permeabilities of CAT3 and OA-CAT3-SLN were investigated on an MDCK-MDR1 cell monolayer. MDCK-MDR1 cells were seeded onto 12-well transwell® filter inserts (pore size 0.4 μm, surface area 1.12 cm^2; Corning Incorporated, Corning, NY, USA) at a density of 2 × 10^5 cells/well. The culture medium was changed every 24 h for seven days, and the cell monolayers with a transepithelial electrical resistance (TEER) above 110 Ω·cm^2 were used for the transport experiments. Prior to performing the TEER test, the culture medium was removed, and the monolayer was pre-incubated with 0.5 mL of Hanks’ balanced salt solution (HBSS) for 20 min at 37 °C. […]
To investigate the mechanism of cellular internalization of OA-CAT3-SLN, various specific endocytic inhibitors were evaluated in the uptake study. […]
The amount of CAT3 or OA-CAT3-SLN that permeated that through the monolayer was determined using the liquid chromatography-mass spectrometry (LC-MS/MS) system. The apparent permeability coefficient (Papp) of CAT3 or OA-CAT3-SLN was calculated according to the following equation: Papp = dQ/dt × 1/(A × C0), where dQ/dt indicates the linear appearance rate of mass at the BL side (μmol/s), C0 is the initial concentration of CAT3 or OA-CAT3-SLN on the AP side (μmol/mL), and A is the surface area of the monolayer (cm^2).

C6 glioma cells = assay: In vitro cytotoxicity analysis (MTT assay); type: cell-based; settings: 0.64 ng/mL
Procedure: Cytotoxicity of the CAT3 suspension, OA-CAT3-SLN, and blank SLN against the C6 brain glioma cell line was measured by 3-(4,5-dimethylthiazol-2-yl)-2,5 diphenyltetrazolium bromide (MTT) assay. Briefly, the cells were seeded into 96-well plates at a cell density of 2 × 10^4 cells/mL (100 μL/well). After 24 h of incubation, the cells were further incubated for 24, 48, and 72 h in fresh DMEM complete medium containing 0.64 ng/mL CAT3 suspension, OA-CAT3-SLN, or the blank SLN, respectively. At the above-mentioned time points, the culture medium was replaced by the MTT solution (0.5 mg/mL, 200 μL/well), followed by incubation for further 4 h. The supernatant was removed and 100 μL of DMSO solution was added to the wells. The absorbance values of each well were measured at 570 nm using a microplate reader (Synergy H1 Hybrid Multi-Mode Microplate Reader, BioTek, Winooski, VT, USA).

human cell lines = settings: versus pro-drug CAT3; cited from earlier work
P-gp = test system: P-gp; parameters: method as in PMID 25936609, PMID 35547992; settings: cited from earlier work

Row | SMILES | CAT3 released in the first 24 h [1] | Papp A→B at 2 h, 100 ng/mL [2] [×10⁻⁶ cm/s] | viability at 0.00064 µg/mL (C6 glioma cells; 24 h, n = 3, read-out: cell viability 24 h) [%] | viability at 0.00064 µg/mL (C6 glioma cells; 48 h, n = 3, read-out: cell viability 48 h) [%] | viability at 0.00064 µg/mL (C6 glioma cells; 72 h, n = 3, read-out: cell viability 72 h) [%] | in vitro antitumor activity, times greater than CAT3 (human cell lines) | P-gp substrate (P-gp)
1 | COc1cc2c3c(c4ccc(OC(=O)C(C)(C)C)cc4c2cc1OC)C[C@@H]1CCCN1C3 [CAT3, 13a-(S)-3-pivaloyloxyl-6,7-dimethoxyphenanthro(9,10-b)-indolizidine] | more than 80% | 0.106 ± 0.0289 | 81.2 | 46.2 | 16.5 | – | –
2 | COc1cc2c3c(c4ccc(O)cc4c2cc1OC)C[C@@H]1CCCN1C3 [PF403, 13a(S)-3-hydroxyl-6,7-dimethoxyphenanthro(9,10-b)-indolizidine] | – | – | – | – | – | about 1000 times | substrate of P-gp

— publication PMC7076672, “Improving the Oral Bioavailability of an Anti-Glioma Prodrug CAT3 Using Novel Solid Lipid Nanoparticles Containing Oleic Acid-CAT3 Conjugates” (Pharmaceutics, 2020)
